tested on: HCV 1b_Huh-Luc/Neo-ET cell line persistently expressing a bicistronic genotype 1b replicon in Huh 7 cells; assay: HCV replicon assay (luciferase readout); type: cell-based; conditions: Hepatitis C virus, Huh-7, 72 h, read-out: Inhibition of HCV genotype 1b
In short: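 EC50, determined repeatedly, comes from a four-parameter logistic fit of luciferase signal as percent of untreated control. Readout follows 72 h compound exposure, in triplicate, of the HCV 1b_Huh-Luc/Neo-ET replicon line.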

Compound	EC50
C[C@H](NC(=O)[C@@H]1CCCN1C(=O)[C@H](NC(=O)OC(C)(C)C)c1ccccc1)c1ccc(C#Cc2ccc(-c3cnc([C@@H]4CCCN4C(=O)[C@H](NC(=O)OC(C)(C)C)c4ccccc4)[nH]3)cc2)cc1 [Compound 169]	1 to 9.9 nM
COC(=O)N[C@H](C(=O)N1CCC[C@H]1c1nc2ccc(-c3ccc(C#Cc4cnc([C@@H]5CCCN5C(=O)[C@H](NC(=O)OC)c5ccccc5)[nH]4)cc3)cc2[nH]1)C(C)C [Compound 1085]	< 1 nM
COC(=O)N[C@H](CC(=O)N1CCC[C@H]1c1ncc(-c2ccc(C#Cc3ccc4nc([C@@H]5CCCN5C(=O)C[C@@H](NC(=O)OC)C(C)C)[nH]c4c3)cc2)[nH]1)C(C)C [Compound 1065]	10 to 999 nM
COC(=O)N[C@H](C(=O)N1CCC[C@H]1c1nc(-c2cnc3cc(C#Cc4cnc([C@@H]5CCCN5C(=O)[C@@H](NC(=O)OC)C(C)C)[nH]4)ccc3c2)c[nH]1)C(C)C [Compound 1076]	< 1 nM
COC(=O)N[C@@H](C(=O)N1CCC[C@H]1c1ncc(C#Cc2ccc(-c3cnc([C@@H]4CCCN4C(=O)[C@@H](c4ccccc4)N(C)C)[nH]3)cc2)[nH]1)c1ccccc1 [Compound 123]	< 1 nM
COC(=O)N[C@@H](C(=O)N1CCC[C@H]1c1ncc(C#Cc2ccc(C#Cc3cnc([C@@H]4CCCN4C(=O)[C@@H](c4ccccc4)N4CCCC4)[nH]3)cc2)[nH]1)c1ccccc1 [Compound 311]	< 1 nM
CNC(=O)N[C@@H](C(=O)N1CCC[C@H]1c1ncc(C#Cc2ccc(C#Cc3cnc([C@@H]4CCCN4C(=O)[C@H](NC(=O)NC)c4ccccc4)[nH]3)cc2)[nH]1)c1ccccc1 [Compound 307]	< 1 nM
COC(=O)N[C@H](C(=O)N1CCC[C@H]1c1ncc(-c2ccc(C#Cc3ccc(-c4cnc([C@@H]5CCCN5C(=O)[C@@H](NC(=O)OC)C5CCOCC5)[nH]4)c(F)c3)cc2)[nH]1)C1CCOCC1 [Compound 1012]	< 1 nM
COC(=O)N[C@@H](C(=O)N1CCC[C@H]1c1ncc(-c2ccc(C#Cc3ccc(-c4cnc([C@@H]5CCCN5C(=O)[C@H](NC(=O)[C@H]5CCCN5C)c5ccccc5)[nH]4)cc3)cc2)[nH]1)c1ccccc1 [Compound 204]	< 1 nM
COC(=O)N[C@H](C(=O)N1CCC[C@H]1c1nc(-c2ccc3cc(C#Cc4cnc([C@@H]5CCCN5C(=O)[C@@H](NC(=O)OC)C(C)C)[nH]4)ccc3c2)c[nH]1)c1ccccc1 [Compound 1078]	< 1 nM
COC(=O)N[C@@H](C(=O)N1CCC[C@H]1c1ncc(C#Cc2ccc3nc([C@@H]4CCCN4C(=O)[C@H](NC(=O)OC)c4ccccc4)[nH]c3c2)[nH]1)c1ccccc1 [Compound 700]	< 1 nM
O=C(NCC(=O)N1CCC[C@H]1c1ncc(C#Cc2ccc(-c3cnc([C@@H]4CCCN4C(=O)CNC(=O)C4CC4)[nH]3)cc2)[nH]1)C1CC1 [Compound 113]	10 to 999 nM
CCN(CC)[C@@H](C(=O)N1CCC[C@H]1c1ncc(-c2ccc(-c3ccc(C#Cc4cnc([C@@H]5CCCN5C(=O)[C@H](NC(=O)OC)c5ccccc5)[nH]4)cc3)cc2)[nH]1)c1ccccc1 [Compound 751]	< 1 nM
O=C(N[C@@H](C(=O)N1CCC[C@H]1C(=O)NCc1ccc(C#Cc2ccc(-c3cnc([C@@H]4CCCN4C(=O)[C@H](NC(=O)C4CC4)c4ccccc4)[nH]3)cc2)cc1)c1ccccc1)C1CC1 [Compound 190]	< 1 nM
CS(=O)(=O)N[C@@H](C(=O)N1CCC[C@H]1c1ncc(-c2ccc(C#Cc3ccc(-c4cnc([C@@H]5CCCN5C(=O)[C@@H](c5ccccc5)N5CCCCC5)[nH]4)cc3)cc2)[nH]1)c1ccccc1 [Compound 231]	< 1 nM
O=C(N[C@@H](C(=O)N1CCC[C@H]1c1ncc(C#Cc2ccc(C#Cc3cnc([C@@H]4CCCN4C(=O)[C@H](NC(=O)C4CC4)c4ccccc4)[nH]3)cc2)[nH]1)c1ccccc1)C1CC1 [Compound 303]	< 1 nM
CC(C)[C@@H](NC(=O)C1CC1)C(=O)N1CCC[C@H]1C(=O)Nc1ccc(C#Cc2cnc([C@@H]3CCCN3C(=O)[C@H](NC(=O)C3CC3)C(C)C)[nH]2)cc1 [Compound 116]	1 to 9.9 nM
CC(C)[C@@H](NC(=O)OC(C)(C)C)C(=O)N1CCC[C@H]1C(=O)Nc1ccc(C#Cc2cnc([C@@H]3CCCN3C(=O)[C@H](NC(=O)OC(C)(C)C)C(C)C)[nH]2)cc1 [Compound 114]	10 to 999 nM
CC(=O)N[C@@H](C(=O)N1CCC[C@H]1c1ncc(C#Cc2ccc(-c3cnc([C@@H]4CCCN4C(=O)[C@H](NC(C)=O)c4ccccc4)[nH]3)cc2)[nH]1)c1ccccc1 [Compound 109]	< 1 nM
COC(=O)N[C@H](C(=O)N1CCC[C@H]1c1ncc(-c2ccc(C#Cc3ccc4nc([C@@H]5CCCN5C(=O)[C@@H](NC(=O)OC)C5CCOCC5)[nH]c4c3)cc2F)[nH]1)C1CCOCC1 [Compound 1070]	< 1 nM
CN(C)[C@@H](C(=O)N1CCC[C@H]1c1ncc(C#Cc2ccc(C#Cc3cnc([C@@H]4CCCN4C(=O)[C@@H](c4ccccc4)N(C)C)[nH]3)cc2)[nH]1)c1ccccc1 [Compound 305]	< 1 nM
O=C([C@H](O)c1ccccc1)N1CCC[C@H]1c1ncc(-c2ccc(C#Cc3ccc(-c4cnc([C@@H]5CCCN5C(=O)[C@H](O)c5ccccc5)[nH]4)cc3)cc2)[nH]1 [Compound 157]	< 1 nM

Compound	EC50
COC(=O)N[C@@H](C(=O)N1CCC[C@H]1c1ncc(-c2ccc(C#Cc3ccc(-c4cnc([C@@H]5CCCN5C(=O)[C@H](NC(=O)N5CC[C@@H](OC)C5)c5ccccc5)[nH]4)cc3)cc2)[nH]1)c1ccccc1 [Compound 271]	< 1 nM
COC(=O)N[C@H](C(=O)N1CCC[C@H]1c1ncc(-c2ccc(C#Cc3ccc(-c4cnc([C@@H]5CCCN5C(=O)[C@@H](c5ccccc5)N5CCC(C)(O)CC5)[nH]4)cc3)cc2)[nH]1)C(C)C [Compound 970]	< 1 nM
COC(=O)N[C@H](C(=O)N1CCC[C@H]1c1nc2ccc(C#Cc3ccc(-c4cnc([C@@H]5CCCN5C(=O)[C@H](c5ccccc5)N(C)C)[nH]4)cc3)cc2[nH]1)C(C)C [Compound 864]	< 1 nM
COC(=O)N[C@H](C(=O)N1CCC[C@H]1c1ncc(-c2ccc(C#Cc3ccc4nc([C@@H]5CCCN5C(=O)[C@H](NC(=O)OC)C(C)C)[nH]c4c3)cc2)[nH]1)C(C)C [Compound 1054]	< 1 nM
COC(=O)N[C@@H](C(=O)N1CCC[C@H]1c1ncc(-c2ccc(C#Cc3ccc(-c4cnc([C@@H]5CCCN5C(=O)[C@H](NC(=O)N5CC[C@H](OC)C5)c5ccccc5)[nH]4)cc3)cc2)[nH]1)c1ccccc1 [Compound 272]	< 1 nM
CC(C)(C)OC(=O)N[C@@H](C(=O)N1CCC[C@H]1c1cc(-c2ccc(C#Cc3ccc(-c4cnc([C@@H]5CCCN5C(=O)[C@H](NC(=O)OC(C)(C)C)c5ccccc5)[nH]4)cc3)cc2)n[nH]1)c1ccccc1 [Compound 210]	< 1 nM
COC(=O)N[C@@H](C(=O)N1CCC[C@H]1c1ncc(-c2ccc(C#Cc3ccc(-c4cnc([C@@H]5CCCN5C(=O)NCc5ccccc5)[nH]4)cc3)cc2)[nH]1)c1ccccc1 [Compound 197]	< 1 nM
COC(=O)N[C@@H](Cc1ccccc1)C(=O)N1CCC[C@H]1c1ncc(-c2ccc(C#Cc3ccc4nc([C@@H]5CCCN5C(=O)[C@H](Cc5ccccc5)NC(=O)OC)[nH]c4c3)cc2)[nH]1 [Compound 1045]	< 1 nM
COC(=O)N[C@@H](C(=O)N1CCC[C@H]1c1ncc(-c2ccc(C#Cc3ccc(-c4cnc([C@@H]5CCCN5C(=O)[C@H](NC(=O)N5CCCCC5)c5ccccc5)[nH]4)cc3)cc2)[nH]1)c1ccccc1 [Compound 242]	< 1 nM
COC(=O)N[C@@H](C(=O)N1CCC[C@H]1c1ncc(-c2ccc(C#Cc3ccc4nc([C@@H]5CCCN5C(=O)[C@H](NC(=O)OC)C(C)C)[nH]c4c3)cc2)[nH]1)C(C)C [Compound 861]	10 to 999 nM
C(#Cc1ccc2nc([C@@H]3CCCN3)[nH]c2c1)c1ccc(-c2cnc([C@@H]3CCCN3)[nH]2)cc1 [Compound 1035]	10 to 999 nM
O=C(N[C@@H](C(=O)N1CCC[C@H]1c1ncc(-c2ccc(C#Cc3ccc(-c4cnc([C@@H]5CCCN5C(=O)[C@H](NC(=O)N5CCC(O)CC5)c5ccccc5)[nH]4)cc3)cc2)[nH]1)c1ccccc1)N1CCC(O)CC1 [Compound 251]	< 1 nM
COC(=O)N[C@@H](C(=O)N1CCC[C@H]1c1ncc(C#Cc2ccc(-c3ccc(-c4cnc([C@@H]5CCCN5C(=O)[C@H](NC(=O)C5CC5)c5ccccc5)[nH]4)cc3)cc2)[nH]1)c1ccccc1 [Compound 754]	< 1 nM
COC(=O)N[C@H](C(=O)N1CCOC[C@H]1c1ncc(-c2ccc(C#Cc3ccc4nc([C@@H]5CCCN5C(=O)[C@@H](NC(=O)OC)C(C)C)[nH]c4c3)cc2)[nH]1)C(C)C [Compound 1027]	< 1 nM
O=C(N[C@@H](C(=O)N1CCC[C@H]1c1nc(-c2ccc3cc(C#Cc4cnc([C@@H]5CCCN5C(=O)[C@H](NC(=O)C5CC5)c5ccccc5)[nH]4)ccc3c2)c[nH]1)c1ccccc1)C1CC1 [Compound 804]	< 1 nM
COC(=O)N[C@H](C(=O)N1CCC[C@H]1c1ncc(-c2ccc(C#Cc3ccc4nc([C@@H]5CCCN5)[nH]c4c3)cc2)[nH]1)C(C)C [Compound 1056]	10 to 999 nM
COC(=O)N[C@@H](C(=O)N(C)[C@@H](C)c1ncc(-c2ccc(C#Cc3ccc(-c4cnc([C@@H]5CCCN5C(=O)[C@H](NC(=O)OC)c5ccccc5)[nH]4)cc3)cc2)[nH]1)c1ccccc1 [Compound 274]	< 1 nM
COC(=O)N[C@H](C(=O)N1CCC[C@H]1c1ncc(C#Cc2ccc(-c3ccc(-c4cnc([C@@H]5CCCN5C(=O)[C@@H](NC(=O)OC)C(C)C)[nH]4)cc3)cc2)[nH]1)C(C)C [Compound 756]	< 1 nM
COC[C@@H]1CCCN1C(=O)N[C@@H](C(=O)N1CCC[C@H]1c1ncc(-c2ccc(C#Cc3ccc(-c4cnc([C@@H]5CCCN5C(=O)[C@H](NC(=O)OC)c5ccccc5)[nH]4)cc3)cc2)[nH]1)c1ccccc1 [Compound 260]	< 1 nM
COC(=O)N[C@H](C(=O)N1CCC[C@H]1c1ncc(-c2ccc(C#Cc3ccc(-c4cnc([C@@H]5CCCN5C(=O)[C@H](NC(=O)N5CC[C@H](O)C5)c5ccccc5)[nH]4)cc3)cc2)[nH]1)C(C)C [Compound 974]	< 1 nM
COC(=O)N[C@H](C(=O)N1CCC[C@H]1c1nc2c([nH]1)-c1ccc(C#Cc3ccc(-c4cnc([C@@H]5CCCN5C(=O)[C@H](NC(=O)OC)c5ccccc5)[nH]4)cc3F)cc1CC2)C(C)C [Compound 1098]	< 1 nM
